What was measured:
IKKε = IKKε (Homo sapiens (Human), UniProt Q14164); test: TR-FRET kinase assay, IKKε; assay type: biochemical; details: full length recombinant IKKε 0.3 nM, 2x Km ATP, 1 μM peptide, 240 min at 25° C.; geometric mean of minimum four determinations
Source text: Biological Assay for TBK1 and IKKs:

TBK1 = TBK1 (Homo sapiens (Human), UniProt Q9UHD2); test: TR-FRET kinase assay, TBK1; details: read-out: TBK1-IC50; full length recombinant TBK1 2.5 nM, 2x Km ATP, 1 μM peptide, 240 min at 25° C.; geometric mean of minimum four determinations
Sequence of TBK1 (Q9UHD2 whole entry): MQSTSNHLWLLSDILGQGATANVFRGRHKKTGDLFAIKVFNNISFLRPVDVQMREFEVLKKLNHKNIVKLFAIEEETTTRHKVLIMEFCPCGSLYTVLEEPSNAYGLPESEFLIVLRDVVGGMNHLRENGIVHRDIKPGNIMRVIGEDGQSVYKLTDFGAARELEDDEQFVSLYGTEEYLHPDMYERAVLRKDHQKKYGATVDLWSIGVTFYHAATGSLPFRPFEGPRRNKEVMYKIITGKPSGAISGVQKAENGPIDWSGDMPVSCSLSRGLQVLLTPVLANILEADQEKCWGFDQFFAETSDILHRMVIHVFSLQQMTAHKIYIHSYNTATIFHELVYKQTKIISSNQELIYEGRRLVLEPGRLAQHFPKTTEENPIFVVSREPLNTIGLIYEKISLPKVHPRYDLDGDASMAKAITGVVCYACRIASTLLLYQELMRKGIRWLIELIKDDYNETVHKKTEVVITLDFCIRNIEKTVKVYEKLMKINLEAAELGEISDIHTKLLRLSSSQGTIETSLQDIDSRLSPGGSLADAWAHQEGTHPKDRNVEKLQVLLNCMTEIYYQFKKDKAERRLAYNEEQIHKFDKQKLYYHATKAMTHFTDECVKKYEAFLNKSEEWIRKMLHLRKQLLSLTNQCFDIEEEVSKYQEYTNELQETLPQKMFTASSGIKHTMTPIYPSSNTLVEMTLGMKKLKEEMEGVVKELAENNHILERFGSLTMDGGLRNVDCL

Sequence of IKKε (Q14164 whole entry): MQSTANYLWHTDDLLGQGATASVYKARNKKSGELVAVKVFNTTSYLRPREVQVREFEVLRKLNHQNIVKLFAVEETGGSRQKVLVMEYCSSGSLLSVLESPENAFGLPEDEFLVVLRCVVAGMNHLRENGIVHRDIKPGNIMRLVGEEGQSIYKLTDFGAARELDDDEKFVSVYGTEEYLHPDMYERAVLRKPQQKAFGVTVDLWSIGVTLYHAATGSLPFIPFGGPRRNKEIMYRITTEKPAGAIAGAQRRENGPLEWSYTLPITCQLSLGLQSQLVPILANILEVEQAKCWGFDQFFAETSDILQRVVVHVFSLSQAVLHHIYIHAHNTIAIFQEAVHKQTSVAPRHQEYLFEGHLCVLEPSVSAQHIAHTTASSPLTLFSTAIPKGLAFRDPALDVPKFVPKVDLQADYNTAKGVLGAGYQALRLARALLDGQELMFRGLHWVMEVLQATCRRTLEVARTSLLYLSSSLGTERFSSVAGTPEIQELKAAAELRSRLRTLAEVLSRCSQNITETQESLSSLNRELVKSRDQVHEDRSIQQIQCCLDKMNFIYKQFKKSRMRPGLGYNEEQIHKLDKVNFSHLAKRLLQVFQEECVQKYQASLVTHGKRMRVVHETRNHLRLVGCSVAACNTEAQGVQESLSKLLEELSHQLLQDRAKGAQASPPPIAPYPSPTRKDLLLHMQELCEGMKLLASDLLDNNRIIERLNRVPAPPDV

Structure (SMILES): N#Cc1cc(-c2ncnc3[nH]c(-c4ccc(N5CCOCC5)cc4)cc23)ccc1N1CC(O)C1 [Example 199, 2-(3-hydroxyazetidin-1-yl)-5-(6-(4-morpholinophenyl)-7H-pyrrolo[2,3-d]pyrimidin-4-yl)benzonitrile]
- IC50 (IKKε): 1000 nM
- IC50 (TBK1): 2.15 nM

Structure (SMILES): COc1cc(C#N)cc(-c2ccnc3[nH]c(-c4ccc(N5CCOCC5)cc4)cc23)c1 [Example 33, 3-methoxy-5-(2-(4-morpholinophenyl)-1H-pyrrolo[2,3-b]pyridin-4-yl)benzonitrile]
- IC50 (IKKε): > 1000 nM
- IC50 (TBK1): 14.5 nM

Structure (SMILES): CC(=O)Nc1ccc(-c2cc3c(-c4ccc(OC5CCOCC5)c(C#N)c4)ccnc3[nH]2)cn1 [Example 236, N-(5-(4-(3-cyano-4-((tetrahydro-2H-pyran-4-yl)oxy)phenyl)-1H-pyrrolo[2,3-b]pyridin-2-yl)pyridin-2-yl)acetamide]
- IC50 (IKKε): 7.91 nM
- IC50 (TBK1): 15.8 nM

Structure (SMILES): N#CCC(=O)N1CC[C@@H](Oc2ccc(-c3ccnc4[nH]c(-c5ccc(N6CCOCC6)cc5)nc34)cc2C#N)C1 [Example 303, (R)-2-((1-(2-cyanoacetyl)pyrrolidin-3-yl)oxy)-5-(2-(4-morpholinophenyl)-3H-imidazo[4,5-b]pyridin-7-yl)benzonitrile]
- IC50 (IKKε): 7.51 nM
- IC50 (TBK1): 4.59 nM

Structure (SMILES): N#CCC(=O)N1CC[C@@H](Oc2ccc(-c3ncnc4[nH]c(-c5ccc(N6CCOCC6)cc5)cc34)cc2C#N)C1 [Example 107, (R)-2-((1-(2-cyanoacetyl)pyrrolidin-3-yl)oxy)-5-(6-(4-morpholinophenyl)-7H-pyrrolo[2,3-d]pyrimidin-4-yl)benzonitrile]
- IC50 (IKKε): 11.7 nM
- IC50 (TBK1): 2.26 nM

Structure (SMILES): N#Cc1cc(-c2ccnc3[nH]c(-c4ccc(N5CCOCC5)cc4)cc23)cnc1OC1CCOCC1 [Example 29, 5-(2-(4-morpholinophenyl)-1H-pyrrolo[2,3-b]pyridin-4-yl)-2-((tetrahydro-2H-pyran-4-yl)oxy)nicotinonitrile]
- IC50 (IKKε): 242 nM
- IC50 (TBK1): 14.8 nM

Structure (SMILES): C=C(C)c1ccc(-c2cc3c(-c4ccc(O[C@@H]5CCN(C(=O)CO)C5)c(C#N)c4)ccnc3[nH]2)cc1 [Example 150, (R)-2-((1-(2-hydroxyacetyl)pyrrolidin-3-yl)oxy)-5-(2-(4-(prop-1-en-2-yl)phenyl)-1H-pyrrolo[2,3-b]pyridin-4-yl)benzonitrile]
- IC50 (IKKε): 18.4 nM
- IC50 (TBK1): 11.2 nM

Structure (SMILES): N#Cc1cc(-c2ncnc3[nH]c(-c4ccc(N5CCN(CC(F)F)CC5)cc4)cc23)ccc1OC1CCNCC1 [Example 265, 5-(6-(4-(4-(2,2-difluoroethyl)piperazin-1-yl)phenyl)-7H-pyrrolo[2,3-d]pyrimidin-4-yl)-2-(piperidin-4-yloxy)benzonitrile]
- IC50 (IKKε): 58.7 nM
- IC50 (TBK1): 16.2 nM

Structure (SMILES): N#Cc1cc(-c2ncnc3[nH]c(-c4ccc(N5CCOCC5)cc4)cc23)ccc1OC1CCOCC1 [Example 101, 5-(6-(4-morpholinophenyl)-7H-pyrrolo[2,3-d]pyrimidin-4-yl)-2-((tetrahydro-2H-pyran-4-yl)oxy)benzonitrile]
- IC50 (IKKε): 8.06 nM
- IC50 (TBK1): 1.72 nM

Structure (SMILES): N#Cc1cc(-c2ncnc3[nH]c(-c4ccc(N5CCN(C6COC6)CC5)cc4)nc23)ccc1OC1CCOCC1 [Example 232, 5-(8-(4-(4-(oxetan-3-yl)piperazin-1-yl)phenyl)-9H-purin-6-yl)-2-((tetrahydro-2H-pyran-4-yl)oxy)benzonitrile]
- IC50 (IKKε): 15.5 nM
- IC50 (TBK1): 4.49 nM

Structure (SMILES): N#Cc1cc(-c2ccnc3[nH]c(-c4ccc(N5CCOCC5)nc4)cc23)ccc1OC1CCOCC1 [Example 81, 5-(2-(6-morpholinopyridin-3-yl)-1H-pyrrolo[2,3-b]pyridin-4-yl)-2-((tetrahydro-2H-pyran-4-yl)oxy)benzonitrile]
- IC50 (IKKε): 9.9 nM
- IC50 (TBK1): 4.1 nM

Structure (SMILES): N#Cc1cc(-c2ncnc3[nH]c(-c4cccc(CN5CCOCC5)c4)cc23)ccc1OC1CCN(C(=O)CO)CC1 [Example 184, 2-((1-(2-hydroxyacetyl)piperidin-4-yl)oxy)-5-(6-(3-(morpholinomethyl)phenyl)-7H-pyrrolo[2,3-d]pyrimidin-4-yl)benzonitrile]
- IC50 (IKKε): 3.43 nM
- IC50 (TBK1): 4.99 nM

Structure (SMILES): N#Cc1cc(-c2ccnc3[nH]c(-c4ccccc4)cc23)ccc1OC1CCOCC1 [Example 83, 5-(2-phenyl-1H-pyrrolo[2,3-b]pyridin-4-yl)-2-((tetrahydro-2H-pyran-4-yl)oxy)benzonitrile]
- IC50 (IKKε): 19.8 nM
- IC50 (TBK1): > 1000 nM

Structure (SMILES): N#Cc1cc(-c2ccnc3[nH]c(-c4ccc(-n5cccn5)cc4)cc23)ccc1OC1CCOCC1 [Example 177, 5-(2-(4-(1H-pyrazol-1-yl)phenyl)-1H-pyrrolo[2,3-b]pyridin-4-yl)-2-((tetrahydro-2H-pyran-4-yl)oxy)benzonitrile]
- IC50 (IKKε): 1000 nM
- IC50 (TBK1): 33.5 nM

Structure (SMILES): CN1CCN(c2ccc(-c3nc4c(-c5ccc(OC6CCN(C(=O)C(F)F)CC6)c(C#N)c5)ncnc4[nH]3)cc2)CC1 [Example 268, 2-((1-(2,2-difluoroacetyl)piperidin-4-yl)oxy)-5-(8-(4-(4-methylpiperazin-1-yl)phenyl)-9H-purin-6-yl)benzonitrile]
- IC50 (IKKε): 2.25 nM
- IC50 (TBK1): 3.92 nM

Structure (SMILES): N#Cc1cc(-c2ccnc3[nH]c(-c4ccc(N5CCOCC5)cc4)cc23)ccc1OC1CCN(C(=O)CN)CC1 [Example 152, 2-((1-(2-aminoacetyl)piperidin-4-yl)oxy)-5-(2-(4-morpholinophenyl)-1H-pyrrolo[2,3-b]pyridin-4-yl)benzonitrile]
- IC50 (IKKε): 18.4 nM
- IC50 (TBK1): 5.96 nM

Structure (SMILES): COc1cc(-c2cc3c(-c4ccc(OC5CCS(=O)(=O)CC5)c(C#N)c4)ncnc3[nH]2)ccc1N1CCN(C2COC2)CC1 [Example 139, 2-((1,1-dioxidotetrahydro-2H-thiopyran-4-yl)oxy)-5-(6-(3-methoxy-4-(4-(oxetan-3-yl)piperazin-1-yl)phenyl)-7H-pyrrolo[2,3-d]pyrimidin-4-yl)benzonitrile]
- IC50 (IKKε): 25 nM
- IC50 (TBK1): 3.68 nM

Structure (SMILES): N#Cc1cc(-c2cnnc3[nH]c(-c4ccc(N5CCOCC5)cc4)nc23)ccc1OC1CCOCC1 [Example 401, 5-(8-(4-morpholinophenyl)-9H-imidazo[4,5-c]pyridazin-6-yl)-2-((tetrahydro-2H-pyran-4-yl)oxy)benzonitrile]
- IC50 (IKKε): > 1000 nM
- IC50 (TBK1): > 1000 nM

Structure (SMILES): N#Cc1cc(-c2ccnc3[nH]c(-c4cnn(C5COC5)c4)cc23)ccc1OC1CCOCC1 [Example 6, 5-(2-(1-(oxetan-3-yl)-1H-pyrazol-4-yl)-1H-pyrrolo[2,3-b]pyridin-4-yl)-2-((tetrahydro-2H-pyran-4-yl)oxy)benzonitrile]
- IC50 (IKKε): 4.87 nM
- IC50 (TBK1): 3.13 nM

Structure (SMILES): N#Cc1cc(-c2ncnc3[nH]c(-c4ccc(C(=O)N5CCCC5)cc4)cc23)ccc1OC1CCOCC1 [Example 185, 5-(6-(4-(pyrrolidine-1-carbonyl)phenyl)-7H-pyrrolo[2,3-d]pyrimidin-4-yl)-2-((tetrahydro-2H-pyran-4-yl)oxy)benzonitrile]
- IC50 (IKKε): 5.39 nM
- IC50 (TBK1): 1.33 nM

Structure (SMILES): N#Cc1cc(-c2ncnc3[nH]c(-c4ccc(N5CCOCC5)cc4)cc23)ccc1OC1CCS(=O)(=O)CC1 [Example 240, 2-((1,1-dioxidotetrahydro-2H-thiopyran-4-yl)oxy)-5-(6-(4-morpholinophenyl)-7H-pyrrolo[2,3-d]pyrimidin-4-yl)benzonitrile]
- IC50 (IKKε): 33.8 nM
- IC50 (TBK1): 3.82 nM

Structure (SMILES): N#Cc1cc(-c2ncnc3[nH]c(-c4cccc(N5CCOCC5)c4)cc23)ccc1N1CC(O)C1 [Example 110, 2-(3-hydroxyazetidin-1-yl)-5-(6-(3-morpholinophenyl)-7H-pyrrolo[2,3-d]pyrimidin-4-yl)benzonitrile]
- IC50 (IKKε): 57.4 nM
- IC50 (TBK1): 12.6 nM

Reference: patent US10072001B2, “Tank-binding kinase inhibitor compounds” (Gilead Sciences, Inc., priority 2014, dated 2018)
